From PubChem BioAssay AID2060889 (Molecular Pharmacology Branch, DTP, NCI, 2025)

System: LG0567-F671-PDC complex spheroids viability
Experiment: Anticancer human tumor LG0567-F671-PDC patient-derived lung adenocarcinoma cell line growth inhibition [RAS]
Settings: for IC50: curve of first compound; for viability, T/C: stronger effect = lower value; active = viability on the fitted dose curve at most 10% of control; inactive = the rest
Source text: RAS pathway inhibitors in Combinations in Complex Spheroids
A high-throughput screen of multi-cell type tumor spheroids was designed to identify active combinations of RAS pathway inhibitors and targeted small molecules. Complex spheroids include a stromal component modeled by human endothelial cells (HUVEC) and fibroblasts modeled by human mesenchymal stem cells (MSCs). The concentration ranges selected for each drug and investigational agent were based upon clinically achievable concentrations if the clinical Cmax of the agent was known.
Compounds. The drugs and investigational agents: abemaciclib (NSC768073), cobimetinib (NSC768068), divarasib (GDC6063, NSC841802), docetaxel (NSC628503), GDC-1971 (RLY-1971, NSC841576), gemcitabine (NSC613327), inavolisib (NSC800729), ipatasertib (NSC767898), KB-0742 (NSC834161), MRTX-1133 (NSC836407), osimertinib (NSC779217), RMC-4630 (NSC839698), RMC-6236 (NSC851965), RMC-6291 (NSC852671), Ro-3306 (NSC812927), sapanisertib (NSC764658), SN-38 (NSC673596), staurosporine (NSC755774), SY5609 (NSC837396), and tovorafenib (DAY101, NSC766906), were obtained from the National Cancer Institute (NCI) Developmental Therapeutics Program Chemical Repository. The FDA-approved anticancer drug set is available from the NCI Developmental Therapeutics Program. […] The stock solutions were prepared in dimethyl sulfoxide (DMSO, Sigma-Aldrich, St. Louis, MO, cat. D2650) at 800-fold the tested concentration and stored at -70 degrees C prior to their use. All drugs and investigational agents were tested over a range starting from a high concentration at or near the clinical Cmax and decreasing in half-log increments. If the clinical Cmax for an agent had not been determined, the highest concentration tested was 10 microM.
Cell Culture. All cells were maintained in an incubator at 37 degrees C and 5% CO2 with 95% humidity. The PDC lines were cultured according to standard operating procedures established by the NCI PDMR. All PDCs were thawed and cultured in Matrigel-coated flasks prepared with a working solution of 1X Ham's F-12 nutrient mix, without supplementation (Invitrogen, Waltham, MA, cat. 11765054), 100 U/mL penicillin-streptomycin (Invitrogen, cat. 15140122), and 2.5% Matrigel (Corning Inc., Corning, NY, cat. 354248) for the first three passages. The 362531-283-R-J2-PDC and 782815-120-R-J1-PDC lines were cultured in 6C/Colon 1B media, which includes advanced DMEM/F-12 (Thermo Fisher Scientific, cat. 12634028), 10 mM HEPES (Thermo Fisher Scientific, cat. 15630080), 1X GlutaMAX supplement (Thermo Fisher Scientific, cat. 35050061), 0.1 mg/mL primocin (InvivoGen, San Diego, CA, cat. ant-pm-2), 10% defined fetal bovine serum, heat inactivated (HyClone Laboratories Inc., Logan, UT, cat. SH30070.03HI), 50% L-WRN conditioned media (ATCC, cat. CRL-3276), 1.25 mM N-Acetyl-L-cysteine (Sigma-Aldrich, cat. A9165), 10 mM nicotinamide (Sigma-Aldrich, cat. N0636), 1X B-27 supplement (Thermo Fisher Scientific, cat. 17504044), 1X N-2 supplement (Thermo Fisher Scientific, cat. 17502048), 50 ng/mL human EGF (Thermo Fisher Scientific, cat. PHG0311), and 10 microM Y-27632 dihydrochloride (Tocris Bioscience, cat. 1254). The K12877-001-R-J1-PDC line was cultured in 6I media, which includes all 6C/Colon 1B media plus 10 ng/mL human FGF-10 (PeproTech, cat. 100-26), 1 ng/mL human FGF-2 (PeproTech, cat. 100-18B), 1 µM prostaglandin E2 (Tocris Bioscience, cat. 2296), […] hydrocortisone (Sigma-Aldrich, cat. H4001), and […] bovine insulin (Sigma-Aldrich, cat. I6634). The K86415-001-R-J1-PDC line was cultured in 6D media, which includes all 6C/Colon 1B media components minus the L-WRN conditioned media. The 485176-168-R4-J1-PDC was cultured in PANC media, which includes all 6C/Colon 1B media plus 100 ng/mL human FGF-10 (PeproTech, cat. 100-26), 500 nM SB-431542 (Selleckchem, cat. S1067), and 10 nM gastrin (Tocris Bioscience, cat. 3006). […]

[1] = second compound 0.0316 µM, first compound 0.0316 µM
[2] = second compound 0.0316 µM, first compound 0.1 µM
[3] = second compound 0.0316 µM, first compound 0.316 µM
[4] = second compound 0.0316 µM, first compound 1 µM
[5] = second compound 0.1 µM, first compound 0.0316 µM
[6] = second compound 0.1 µM, first compound 0.1 µM
[7] = second compound 0.1 µM, first compound 0.316 µM
[8] = second compound 0.1 µM, first compound 1 µM
[9] = second compound 0.316 µM, first compound 0.0316 µM
[10] = second compound 0.316 µM, first compound 0.1 µM
[11] = second compound 0.316 µM, first compound 0.316 µM
[12] = second compound 0.316 µM, first compound 1 µM
[13] = second compound 1 µM, first compound 0.0316 µM
[14] = second compound 1 µM, first compound 0.1 µM
[15] = second compound 1 µM, first compound 0.316 µM
[16] = second compound 1 µM, first compound 1 µM
[17] = second compound 3.16 µM, first compound 0.0316 µM
[18] = second compound 3.16 µM, first compound 0.1 µM
[19] = second compound 3.16 µM, first compound 0.316 µM
[20] = second compound 3.16 µM, first compound 1 µM
[21] = second compound 10 µM, first compound 0.0316 µM
[22] = second compound 10 µM, first compound 0.1 µM
[23] = second compound 10 µM, first compound 0.316 µM
[24] = second compound 10 µM, first compound 1 µM
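Note: spheroids exposed to compound for seven days before readout.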
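Throughout, for IC50: luminescence signal used as a proxy for viable cells.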

CC(=O)OC12COC1CC(O)C1(C)C(=O)C(O)C3=C(C)C(OC(=O)C(O)C(NC(=O)OC(C)(C)C)c4ccccc4)CC(O)(C(OC(=O)c4ccccc4)C21)C3(C)C (centres undefined) + C#Cc1c(F)ccc2cc(O)cc(-c3ncc4c(N5CC6CCC(C5)N6)nc(OCC56CCCN5CC(F)C6)nc4c3F)c12
inactive: viability, T/C [1] 44.2% | viability, T/C [2] 43% | viability, T/C [3] 53.7% | viability, T/C [4] 60% | viability, T/C (second compound 0.0316 µM, first compound 3.16 µM) 66.5% | viability, T/C (second compound 0.0316 µM, first compound 10 µM) 65.3% | viability, T/C [5] 45.7% | viability, T/C [6] 40.1% | viability, T/C [7] 53.2% | viability, T/C [8] 56.7% | viability, T/C (second compound 0.1 µM, first compound 3.16 µM) 64.5% | viability, T/C (second compound 0.1 µM, first compound 10 µM) 59.4% | viability, T/C [9] 34.9% | viability, T/C [10] 37.8% | viability, T/C [11] 45.4% | viability, T/C [12] 49.1% | viability, T/C (second compound 0.316 µM, first compound 3.16 µM) 60% | viability, T/C (second compound 0.316 µM, first compound 10 µM) 43.8% | viability, T/C [13] 26.7% | viability, T/C [14] 24.8% | viability, T/C [15] 31.1% | viability, T/C [16] 37% | viability, T/C (second compound 1 µM, first compound 3.16 µM) 43.8% | viability, T/C (second compound 1 µM, first compound 10 µM) 30.8% | viability, T/C [17] 16.1% | viability, T/C [18] 16.4% | viability, T/C [19] 19.9% | viability, T/C [20] 20.5% | viability, T/C (second compound 3.16 µM, first compound 3.16 µM) 23.9% | viability, T/C (second compound 3.16 µM, first compound 10 µM) 15.2%
< 31.6 nM: IC50 (second compound 0.0316 µM) | IC50 (second compound 0.1 µM) | IC50 (second compound 0.316 µM) | IC50 (second compound 1 µM) | IC50 (second compound 3.16 µM) | IC50 (second compound 10 µM)
active: viability, T/C [21] 9.08% | viability, T/C [22] 7.93% | viability, T/C [23] 9.23% | viability, T/C [24] 8.41% | viability, T/C (second compound 10 µM, first compound 3.16 µM) 9.25% | viability, T/C (second compound 10 µM, first compound 10 µM) 5.64%

Nc1ccn(C2OC(CO)C(O)C2(F)F)c(=O)n1 (centres undefined) + C#Cc1c(F)ccc2cc(O)cc(-c3ncc4c(N5CC6CCC(C5)N6)nc(OCC56CCCN5CC(F)C6)nc4c3F)c12
> 1000 nM: IC50 (second compound 0.0316 µM) | IC50 (second compound 0.1 µM)
inactive: viability, T/C (second compound 0.0316 µM, first compound 0.00316 µM) 76.6% | viability, T/C (second compound 0.0316 µM, first compound 0.01 µM) 74.5% | viability, T/C [1] 60.8% | viability, T/C [2] 59.8% | viability, T/C [3] 63.2% | viability, T/C [4] 59.5% | viability, T/C (second compound 0.1 µM, first compound 0.00316 µM) 70.4% | viability, T/C (second compound 0.1 µM, first compound 0.01 µM) 71.7% | viability, T/C [5] 52.1% | viability, T/C [6] 61.5% | viability, T/C [7] 59.8% | viability, T/C [8] 59.2% | viability, T/C (second compound 0.316 µM, first compound 0.00316 µM) 46.8% | viability, T/C (second compound 0.316 µM, first compound 0.01 µM) 46.7% | viability, T/C [9] 47.6% | viability, T/C [10] 46.5% | viability, T/C [11] 49.4% | viability, T/C [12] 44.8% | viability, T/C (second compound 1 µM, first compound 0.00316 µM) 26.7% | viability, T/C (second compound 1 µM, first compound 0.01 µM) 27.3% | viability, T/C [13] 25.5% | viability, T/C [14] 26.9% | viability, T/C [15] 27.9% | viability, T/C [16] 27.5% | viability, T/C (second compound 3.16 µM, first compound 0.00316 µM) 16.1% | viability, T/C (second compound 3.16 µM, first compound 0.01 µM) 16.4% | viability, T/C [17] 16.8% | viability, T/C [18] 16% | viability, T/C [19] 16.4% | viability, T/C [20] 14.8%
active: viability, T/C (second compound 10 µM, first compound 0.00316 µM) 8.86% | viability, T/C (second compound 10 µM, first compound 0.01 µM) 9.45% | viability, T/C [21] 9% | viability, T/C [22] 8.04% | viability, T/C [23] 8.48% | viability, T/C [24] 9.14%
< 3.16 nM: IC50 (second compound 0.316 µM) | IC50 (second compound 1 µM) | IC50 (second compound 3.16 µM) | IC50 (second compound 10 µM)
